Counter-ions that a name gives are not always drawn.
Biological target: SHP2 (Homo sapiens (Human), UniProt Q06124)
Assay: SHP2 allosteric inhibition assay (DiFMUP prompt fluorescence)
Format: biochemical
Conditions: Table 1; 0.25 nM SHP2 with 0.5 μM peptide IRS1_pY1172(dPEG8)pY1222, substrate DiFMUP 100 μM

Sequence of SHP2 (Q06124 whole entry): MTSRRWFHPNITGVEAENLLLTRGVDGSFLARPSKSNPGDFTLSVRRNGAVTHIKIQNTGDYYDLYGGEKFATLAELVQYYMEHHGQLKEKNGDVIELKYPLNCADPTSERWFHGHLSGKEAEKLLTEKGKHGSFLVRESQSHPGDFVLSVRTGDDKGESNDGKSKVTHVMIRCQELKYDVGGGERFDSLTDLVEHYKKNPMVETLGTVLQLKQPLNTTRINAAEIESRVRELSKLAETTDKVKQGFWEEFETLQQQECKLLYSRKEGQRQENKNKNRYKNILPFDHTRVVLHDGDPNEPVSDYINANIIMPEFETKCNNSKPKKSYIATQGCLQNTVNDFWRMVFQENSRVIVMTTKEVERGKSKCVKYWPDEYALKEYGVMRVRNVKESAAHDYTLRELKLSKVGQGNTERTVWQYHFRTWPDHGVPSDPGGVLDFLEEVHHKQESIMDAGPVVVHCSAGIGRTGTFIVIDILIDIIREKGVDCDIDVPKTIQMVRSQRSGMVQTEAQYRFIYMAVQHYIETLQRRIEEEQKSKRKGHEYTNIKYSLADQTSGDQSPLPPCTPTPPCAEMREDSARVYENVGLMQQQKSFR

Row | SMILES | IC50 [nM]
1 | O=S(=O)(F)Oc1cnc2c(N3CCCc4ncccc43)n[nH]c2n1 [Compound 8A] | ≥ 10000
2 | O=S(=O)(F)c1cccc2c1CCCN2c1n[nH]c2nc(N3CCCCC3)cnc12 [Compound 4A] | ≥ 10000
3 | CC1(CN)CCN(c2cnc3c(N4CCCc5cc(OS(=O)(=O)F)ccc54)n[nH]c3n2)CC1 [Compound 6A] | < 1000
4 | O=S(=O)(F)Oc1cccc2c1CCCN2c1n[nH]c2nc(N3CCCCC3)cnc12 [Compound 2A] | ≥ 10000
5 | O=S(=O)(F)Oc1ccc2c(c1)CCCN2c1n[nH]c2nc(N3CCCCC3)cnc12 [Compound 1A] | ≥ 10000
6 | CC1(CN)CCN(c2cnc3c(N4CCCc5c(OS(=O)(=O)F)cccc54)n[nH]c3n2)CC1 [Compound 3A] | < 1000

Same assay, conditions: Table 2; 0.25 nM SHP2 with 0.5 μM peptide IRS1_pY1172(dPEG8)pY1222, substrate DiFMUP 100 μM

Row | SMILES | IC50 [nM]
7 | Fc1c(Cl)cccc1-c1n[nH]c2nc(C3CCNCC3)cnc12 [Compound 2B] | < 1000
8 | NCC1CCCCN1C(=O)c1cnc2c(-c3cccc(Cl)c3F)n[nH]c2n1 (centres unmarked) [Compound 13B] | ≥ 10000
9 | C[C@H]1CCN(c2n[nH]c3nc([C@H]4CC[C@H](CN)CC4)cnc23)c2ccc(C#N)cc21 [Compound 19B, (4S)-4-methyl-1-{6-[(1s,4s)-4-(aminomethyl)cyclohexyl]-1H-pyrazolo[3,4-b]pyrazin-3-yl}-1,2,3,4-tetrahydroquinoline-6-carbonitrile] | 1000 to 10000
10 | NCc1ccn(Cc2cnc3c(-c4cccc(Cl)c4F)n[nH]c3n2)n1 [Compound 9B, (1-((3-(3-chloro-2-fluorophenyl)-1H-pyrazolo[3,4-b]pyrazin-6-yl)methyl)-1H-pyrazol-3-yl)methanamine] | ≥ 10000
11 | NC1CCN(C(=O)c2cnc3c(-c4cccc(Cl)c4F)n[nH]c3n2)C1 (centres unmarked) [Compound 5B] | 1000 to 10000
12 | OC1(c2cnc3c(-c4cccc(Cl)c4F)n[nH]c3n2)CCNCC1 [Compound 8B] | < 1000
13 | CC(C)(CN)c1cnc2c(-c3cccc(Cl)c3F)n[nH]c2n1 [Compound 11B, 2-[3-(3-chloro-2-fluorophenyl)-1H-pyrazolo[3,4-b]pyrazin-6-yl]-2-methylpropan-1-amine] | ≥ 10000
14 | NC(=O)C1(c2cnc3c(-c4cccc(Cl)c4F)n[nH]c3n2)CCNCC1 [Compound 3B] | < 1000
15 | C[C@H]1CCN(c2n[nH]c3nc([C@H]4CC[C@@H](CN)CC4)cnc23)c2ccc(C#N)cc21 [Compound 18B, (4S)-4-methyl-1-{6-[(1r,4r)-4-(aminomethyl)cyclohexyl]-1H-pyrazolo[3,4-b]pyrazin-3-yl}-1,2,3,4-tetrahydroquinoline-6-carbonitrile] | < 1000
16 | OCC1(c2cnc3c(-c4cccc(Cl)c4F)n[nH]c3n2)CCNCC1 [Compound 4B] | < 1000
17 | CC(C)(CN)c1cnc2c(N3CCCc4ncccc43)n[nH]c2n1 [Compound 12B, 2-(3-(3,4-dihydro-1,5-naphthyridin-1(2H)-yl)-1H-pyrazolo[3,4-b]pyrazin-6-yl)-2-methylpropan-1-amine] | ≥ 10000
18 | CC1(CN)CCN(C(=O)c2cnc3c(-c4cccc(Cl)c4F)n[nH]c3n2)C1 (centres unmarked) [Compound 6B] | ≥ 10000

Same assay, conditions: Table 3; 0.25 nM SHP2 with 0.5 μM peptide IRS1_pY1172(dPEG8)pY1222, substrate DiFMUP 100 μM

Row | SMILES | IC50 [nM]
19 | CC1(CN)CCN(c2nc3[nH]nc(N4CCCc5ncccc54)c3nc2O)CC1 [Compound 5C, 6-(4-(aminomethyl)-4-methylpiperidin-1-yl)-3-(3,4-dihydro-1,5-naphthyridin-1(2H)-yl)-1H-pyrazolo[3,4-b]pyrazin-5-ol] | < 1000
20 | COC(=O)c1nc2c(N3CCCc4ncccc43)n[nH]c2nc1N1CCC(C)(CN)CC1 [Compound 9C, methyl 6-[4-(aminomethyl)-4-methylpiperidin-1-yl]-3-(1,2,3,4-tetrahydro-1,5-naphthyridin-1-yl)-1H-pyrazolo[3,4-b]pyrazine-5-carboxylate] | < 1000
21 | COC1CC(N2CCN(c3n[nH]c4nc(N5CCC6(CC5)CO[C@@H](C)[C@H]6N)c(CO)nc34)c3ccc(C#N)cc32)C1 (some centres unmarked) [Compound 21C] | < 1000
22 | CC1(CN)CCN(c2nc3[nH]nc(N4CCCc5c4cccc5S(C)(=O)=O)c3nc2CO)CC1 [Compound 16C] | < 1000
23 | COCc1nc2c(N3CCCc4ncccc43)n[nH]c2nc1N1CCC(C)(CN)CC1 [Compound 15C] | < 1000
24 | C[C@@H]1OCC2(CCN(c3nc4[nH]nc(-c5cccc6ncccc56)c4nc3CO)CC2)[C@@H]1N [Compound 22C, (6-((3S,4S)-4-amino-3-methyl-2-oxa-8-azaspiro[4.5]decan-8-yl)-3-(quinolin-5-yl)-1H-pyrazolo[3,4-b]pyrazin-5-yl)methanol] | < 1000
25 | COc1nc2c(N3CCCc4ncccc43)n[nH]c2nc1N1CCC2(CC1)CO[C@@H](C)[C@H]2N [Compound 10C, (3S,4S)-8-[5-methoxy-3-(1,2,3,4-tetrahydro-1,5-naphthyridin-1-yl)-1H-pyrazolo[3,4-b]pyrazin-6-yl]-3-methyl-2-oxa-8-azaspiro[4.5]decan-4-amine dihydrochloride] | < 1000
26 | C[C@@H]1OCC2(CCN(c3nc4[nH]nc(-c5ccc6occc6c5)c4nc3CO)CC2)[C@@H]1N [Compound 24C] | < 1000
27 | CC1(CN)CCN(c2nc3[nH]nc(-c4cccc(Cl)c4F)c3nc2C#N)CC1 [Compound 1C] | < 1000
28 | CC1(N)CCN(c2nc3[nH]nc(-c4cccc(Cl)c4F)c3nc2C(=O)O)CC1 [Compound 4C, 6-(4-amino-4-methylpiperidin-1-yl)-3-(3-chloro-2-fluorophenyl)-1H-pyrazolo[3,4-b]pyrazine-5-carboxylic Acid] | 1000 to 10000
29 | C[C@@H]1OCC2(CCN(c3nc4[nH]nc(N5CCCc6ncccc65)c4nc3C#N)CC2)[C@@H]1N [Compound 12C, 6-[(3S,4S)-4-amino-3-methyl-2-oxa-8-azaspiro[4.5]decan-8-yl]-3-(1,2,3,4-tetrahydro-1,5-naphthyridin-1-yl)-1H-pyrazolo[3,4-b]pyrazine-5-carbonitrile] | < 1000
30 | C[C@@H]1OCC2(CCN(c3nc4[nH]nc(-c5cccc(Cl)c5F)c4nc3CO)CC2)[C@@H]1N [Compound 19C] | < 1000
31 | C[C@@H]1OCC2(CCN(c3nc4[nH]nc(N5CCCc6ncccc65)c4nc3CO)CC2)[C@@H]1N [Compound 14C, (6-((3S,4S)-4-amino-3-methyl-2-oxa-8-azaspiro[4.5]decan-8-yl)-3-(3,4-dihydro-1,5-naphthyridin-1(2H)-yl)-1H-pyrazolo[3,4-b]pyrazin-5-yl)methanol] | < 1000
32 | CC(=O)N1CCN(c2n[nH]c3nc(N4CCC5(CC4)CO[C@@H](C)[C@H]5N)c(CO)nc23)c2ccccc21 [Compound 23C] | < 1000
33 | CC1(CN)CCN(c2nc3[nH]nc(N4CCCc5ncccc54)c3nc2C#N)CC1 [Compound 7C, 6-[4-(aminomethyl)-4-methylpiperidin-1-yl]-3-(1,2,3,4-tetrahydro-1,5-naphthyridin-1-yl)-1H-pyrazolo[3,4-b]pyrazine-5-carbonitrile] | < 1000

Same assay, conditions: Table 4; 0.25 nM SHP2 with 0.5 μM peptide IRS1_pY1172(dPEG8)pY1222, substrate DiFMUP 100 μM

Row | SMILES | IC50 [nM]
34 | CN(c1cnc2c(-c3cccc(Cl)c3F)n[nH]c2n1)c1ncccc1CCN [Compound 2D, N-(3-(2-aminoethyl)pyridin-2-yl)-3-(3-chloro-2-fluorophenyl)-N-methyl-1H-pyrazolo[3,4-b]pyrazin-6-amine] | < 1000
35 | CN(c1cnc2c(-c3cccc(Cl)c3F)n[nH]c2n1)c1ncccc1CN [Compound 1D, N-(3-(aminomethyl)pyridin-2-yl)-3-(3-chloro-2-fluorophenyl)-N-methyl-1H-pyrazolo[3,4-b]pyrazin-6-amine] | < 1000

From US12138263B2, “Pyrazolo[3,4-b]pyrazine SHP2 phosphatase inhibitors and methods of use thereof” (Relay Therapeutics, Inc., priority 2018, dated 2024)
